Data taken from PubChem BioAssay AID330 (DTP/NCI, 2004).
Values joined by “and” are separate entries in the source; they are usually repeats but may differ in a detail not shown here. Identical values can stand only once. Toxic doses and inconclusive results are not listed.

Test system: P388 leukemia ip, CD2F1 mice, survival T/C
Assay: NCI In Vivo Anticancer Drug Screen. Data for tumor model P388 Leukemia (intraperitoneal) in CD2F1 (CDF1) mice
Settings: endpoint: median survival time, higher = longer survival
In short: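 Mice carrying the transplanted tumor received test compound or vehicle. Survival was recorded in each group, and the value is the treated-group measurement divided by that of the vehicle-treated control group.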

[1] = dose: 12.5 mg/kg/injection, schedule: Q01DX005 (ip), vehicle: Klucel (hydroxypropylcellulose) (HPC)
[2] = dose: 50.0 mg/kg/injection, schedule: Q01DX005 (ip), vehicle: Klucel (hydroxypropylcellulose) (HPC)
[3] = dose: 50.0 mg/kg/injection, schedule: Q01DX005 (ip), vehicle: saline with Tween-80
[4] = dose: 50.0 mg/kg/injection, schedule: Q01DX009 (ip), vehicle: Klucel (hydroxypropylcellulose) (HPC)
[5] = dose: 100.0 mg/kg/injection, schedule: Q01DX009 (ip), vehicle: Klucel (hydroxypropylcellulose) (HPC)
[6] = dose: 200.0 mg/kg/injection, schedule: Q01DX009 (ip), vehicle: Klucel (hydroxypropylcellulose) (HPC)
[7] = dose: 100.0 mg/kg/injection, schedule: Q04DX003 (ip), vehicle: Klucel (hydroxypropylcellulose) (HPC)
[8] = dose: 200.0 mg/kg/injection, schedule: Q04DX003 (ip), vehicle: Klucel (hydroxypropylcellulose) (HPC)
[9] = dose: 400.0 mg/kg/injection, schedule: Q04DX003 (ip), vehicle: Klucel (hydroxypropylcellulose) (HPC)
[10] = dose: 60.0 mg/kg/injection, schedule: Q01DX005 (ip), vehicle: saline with Tween-80
[11] = dose: 120.0 mg/kg/injection, schedule: Q01DX005 (ip), vehicle: saline with Tween-80
[12] = dose: 240.0 mg/kg/injection, schedule: Q01DX005 (ip), vehicle: saline with Tween-80
[13] = dose: 100.0 mg/kg/injection, schedule: Q01DX005 (ip), vehicle: Klucel (hydroxypropylcellulose) (HPC)
[14] = dose: 25.0 mg/kg/injection, schedule: Q01DX009 (ip), vehicle: Klucel (hydroxypropylcellulose) (HPC)
[15] = dose: 30.0 mg/kg/injection, schedule: Q01DX005 (ip), vehicle: Klucel (hydroxypropylcellulose) (HPC)
[16] = dose: 50.0 mg/kg/injection, schedule: Q01DX009 (ip), vehicle: saline with Tween-80
[17] = dose: 100.0 mg/kg/injection, schedule: Q01DX009 (ip), vehicle: saline with Tween-80
[18] = dose: 200.0 mg/kg/injection, schedule: Q01DX009 (ip), vehicle: saline with Tween-80
[19] = dose: 25.0 mg/kg/injection, schedule: Q01DX009 (ip), vehicle: saline with Tween-80

Structure (SMILES): C=C1C(=O)OC2/C=C(\CO)C3OC3C3OC3(C)CC(OC(=O)/C(=C/C)CO)C12 (configuration not stated)
- T/C (dose: 3.12 mg/kg/injection, schedule: Q01DX005 (ip), vehicle: Klucel (hydroxypropylcellulose) (HPC)): 99 % of control and 106 % of control
- T/C (dose: 6.25 mg/kg/injection, schedule: Q01DX005 (ip), vehicle: Klucel (hydroxypropylcellulose) (HPC)): 100 % of control and 107 % of control and 110 % of control
- T/C [1]: 105 % of control and 106 % of control
- T/C [2]: 100 % of control and 109 % of control

Structure (SMILES): CCN(CC)CCNC(=O)CCC(=O)O
- T/C (dose: 50.0 mg/kg/injection, schedule: Q01DX005 (ip), vehicle: saline): 102 % of control
- T/C (dose: 100.0 mg/kg/injection, schedule: Q01DX005 (ip), vehicle: saline): 100 % of control
- T/C (dose: 200.0 mg/kg/injection, schedule: Q01DX005 (ip), vehicle: saline): 100 % of control

Structure (SMILES): COc1ccc(CC2C(=O)OC(C)C(NC(=O)C(CC(C)C)N(C)C(=O)C3CCCN3C(=O)C(C)O)C(=O)NC(C(C)C)C(O)CC(=O)OC(C(C)C)C(=O)C(C)C(=O)NC(CC(C)C)C(=O)N3CCCC3C(=O)N2C)cc1 (configuration not stated)
- T/C (dose: 37.5 micrograms/kg/injection, schedule: Q01DX005 (ip), vehicle: distilled water + alcohol): 122 % of control
- T/C (dose: 250.0 micrograms/kg/injection, schedule: Q01DX005 (ip), vehicle: distilled water + alcohol): 160 % of control
- T/C (dose: 500.0 micrograms/kg/injection, schedule: Q01DX005 (ip), vehicle: distilled water + alcohol): 166 % of control

Structure (SMILES): Cc1cc(Br)c2nsnc2c1[N+](=O)[O-]
- T/C [3]: 122 % of control

Structure (SMILES): CC(C)c1ccc(C(CC(=O)c2ccccc2)C(C(=O)O)c2ccc([N+](=O)[O-])cc2)cc1 (configuration not stated)
- T/C [4]: 105 % of control
- T/C [5]: 103 % of control
- T/C [6]: 104 % of control

Structure (SMILES): Cc1[nH]c(-c2ccccc2)c2[nH]c(=O)n(-c3ccccc3)c(=O)c12
- T/C [7]: 93 % of control
- T/C [8]: 98 % of control
- T/C [9]: 93 % of control

Structure (SMILES): COc1ccc(/C=N/NC(=S)NN)cc1
- T/C [10]: 99 % of control
- T/C [11]: 100 % of control
- T/C [12]: 98 % of control

Structure (SMILES): Nc1ncnc2c1ncn2C1SC(CO)C(O)C1O (configuration not stated)
- T/C [1]: 92 % of control
- T/C (dose: 25.0 mg/kg/injection, schedule: Q01DX005 (ip), vehicle: Klucel (hydroxypropylcellulose) (HPC)): 100 % of control and 92 % of control
- T/C [2]: 99 % of control and 96 % of control
- T/C [13]: 104 % of control and 100 % of control
- T/C (dose: 200.0 mg/kg/injection, schedule: Q01DX005 (ip), vehicle: Klucel (hydroxypropylcellulose) (HPC)): 101 % of control and 92 % of control

Structure (SMILES): O=c1c2ccccc2[nH]c2c1[nH]c1ccccc12
- T/C [2]: 89 % of control
- T/C [13]: 90 % of control

Structure (SMILES): O=CN1CCc2cc3c(cc2C1Cc1cc2c(cc1Br)OCO2)OCO3 (configuration not stated)
- T/C (dose: 25.0 mg/kg/injection, schedule: Q01DX001 (ip), vehicle: saline + alcohol): 99 % of control
- T/C (dose: 50.0 mg/kg/injection, schedule: Q01DX001 (ip), vehicle: saline + alcohol): 103 % of control
- T/C (dose: 100.0 mg/kg/injection, schedule: Q01DX001 (ip), vehicle: saline + alcohol): 100 % of control

Structure (SMILES): [Cu+2].[O-]c1ccccc1C=NCC(O)CN=Cc1ccccc1[O-] (configuration not stated)
- T/C (dose: 3.75 mg/kg/injection, schedule: Q01DX005 (ip), vehicle: saline with Tween-80): 97 % of control
- T/C (dose: 7.5 mg/kg/injection, schedule: Q01DX005 (ip), vehicle: saline with Tween-80): 104 % of control

Structure (SMILES): O=C1/C(=C/c2ccccc2[N+](=O)[O-])CCCc2ccccc21
- T/C [4]: 94 % of control
- T/C [5]: 103 % of control
- T/C [6]: 105 % of control

Structure (SMILES): COC(=O)CCCC#C/C=C/CCCC/C=C(Br)\C=C/Br
- T/C (dose: 62.5 mg/kg/injection, schedule: Q01DX009 (ip), vehicle: olive oil, sesame oil, peanut oil): 101 % of control
- T/C (dose: 125.0 mg/kg/injection, schedule: Q01DX009 (ip), vehicle: olive oil, sesame oil, peanut oil): 96 % of control
- T/C (dose: 250.0 mg/kg/injection, schedule: Q01DX009 (ip), vehicle: olive oil, sesame oil, peanut oil): 98 % of control

Structure (SMILES): NC(CSC(c1ccccc1)(c1ccccc1)c1ccc(Cl)cc1)C(=O)O (configuration not stated)
- T/C (dose: 33.0 mg/kg/injection, schedule: Q04DX003 (ip), vehicle: saline with Tween-80): 177 % of control
- T/C (dose: 50.0 mg/kg/injection, schedule: Q04DX003 (ip), vehicle: saline with Tween-80): 181 % of control and 272 % of control
- T/C (dose: 75.0 mg/kg/injection, schedule: Q04DX003 (ip), vehicle: saline with Tween-80): 200 % of control
- T/C (dose: 200.0 mg/kg/injection, schedule: Q04DX003 (ip), vehicle: saline with Tween-80): 100 % of control

Structure (SMILES): O=C(NC(=S)c1ccccc1)Nc1ccc(Cl)c(Cl)c1
- T/C (dose: 8.0 mg/kg/injection, schedule: Q01DX009 (ip), vehicle: saline with Tween-80): 100 % of control
- T/C (dose: 16.0 mg/kg/injection, schedule: Q01DX009 (ip), vehicle: saline with Tween-80): 99 % of control
- T/C (dose: 32.0 mg/kg/injection, schedule: Q01DX009 (ip), vehicle: saline with Tween-80): 87 % of control

Structure (SMILES): O=C(Nc1nccs1)Nc1cc(C(F)(F)F)ccc1Cl
- T/C [14]: 102 % of control
- T/C [4]: 108 % of control
- T/C [5]: 97 % of control

Structure (SMILES): COC(=O)[C@H](NC(=O)c1ccccc1)[C@@H](O)/C=C/c1ccccc1
- T/C [3]: 94 % of control
- T/C (dose: 200.0 mg/kg/injection, schedule: Q01DX005 (ip), vehicle: saline with Tween-80): 87 % of control

Structure (SMILES): C=CCn1nnc(N)n1
- T/C [7]: 111 % of control
- T/C [8]: 109 % of control
- T/C [9]: 105 % of control

Structure (SMILES): CCOCCOCCOC(C)Oc1ccccc1OC (configuration not stated)
- T/C [10]: 100 % of control
- T/C [11]: 104 % of control
- T/C [12]: 106 % of control

Structure (SMILES): Cc1ccc(C)n1-c1ccsc1C(=O)NNC(=O)CCl
- T/C (dose: 7.5 mg/kg/injection, schedule: Q01DX005 (ip), vehicle: Klucel (hydroxypropylcellulose) (HPC)): 101 % of control
- T/C (dose: 15.0 mg/kg/injection, schedule: Q01DX005 (ip), vehicle: Klucel (hydroxypropylcellulose) (HPC)): 99 % of control
- T/C [15]: 100 % of control

Structure (SMILES): O=S(=O)(OCCCl)c1ccc(F)cc1
- T/C [16]: 109 % of control
- T/C [17]: 101 % of control
- T/C [18]: 100 % of control

Structure (SMILES): Cc1nc2c([N+](=O)[O-])cc(Cl)cc2[nH]1
- T/C [15]: 107 % of control
- T/C (dose: 60.0 mg/kg/injection, schedule: Q01DX005 (ip), vehicle: Klucel (hydroxypropylcellulose) (HPC)): 107 % of control
- T/C (dose: 120.0 mg/kg/injection, schedule: Q01DX005 (ip), vehicle: Klucel (hydroxypropylcellulose) (HPC)): 103 % of control

Structure (SMILES): CCCCCCCCCCCCCCCC[As](CCCCCCCCCCCCCCCC)SCC1OC(OC(C)=O)C(OC(C)=O)C(OC(C)=O)C1OC(C)=O (configuration not stated)
- T/C [19]: 114 % of control
- T/C [16]: 109 % of control and 119 % of control
- T/C [17]: 117 % of control
- T/C [18]: 119 % of control

Structure (SMILES): CN(C)CC1=Nc2cccc3cccc(c23)N1
- T/C [10]: 102 % of control
- T/C [11]: 106 % of control

Structure (SMILES): CN(CCCCCl)C(=O)Oc1ccccc1
- T/C [4]: 102 % of control
- T/C [5]: 106 % of control
- T/C [6]: 99 % of control

Structure (SMILES): Cc1ccc(/C=N/NC(=O)C(=O)Nc2ccc(Cl)c([N+](=O)[O-])c2)cc1
- T/C (dose: 6.25 mg/kg/injection, schedule: Q01DX005 (ip), vehicle: saline with Tween-80): 88 % of control
- T/C (dose: 12.5 mg/kg/injection, schedule: Q01DX005 (ip), vehicle: saline with Tween-80): 95 % of control

Structure (SMILES): CCCCCCCCN(C)N=Nc1ccccc1C(=O)O
- T/C (dose: 12.5 mg/kg/injection, schedule: Q01DX009 (ip), vehicle: Klucel (hydroxypropylcellulose) (HPC)): 105 % of control
- T/C [14]: 118 % of control
- T/C [4]: 115 % of control
- T/C [5]: 108 % of control

Structure (SMILES): O=C(Nc1cccc([N+](=O)[O-])c1)OCC#CCCl
- T/C (dose: 50.0 mg/kg/injection, schedule: Q01DX005 (ip), vehicle: saline + Tween-80 + alcohol): 102 % of control
- T/C (dose: 100.0 mg/kg/injection, schedule: Q01DX005 (ip), vehicle: saline + Tween-80 + alcohol): 101 % of control
- T/C (dose: 200.0 mg/kg/injection, schedule: Q01DX005 (ip), vehicle: saline + Tween-80 + alcohol): 100 % of control

Structure (SMILES): CCOC(=S)NS(=O)(=O)c1ccccc1
- T/C (dose: 6.25 mg/kg/injection, schedule: Q01DX009 (ip), vehicle: saline with Tween-80): 107 % of control
- T/C (dose: 12.5 mg/kg/injection, schedule: Q01DX009 (ip), vehicle: saline with Tween-80): 102 % of control
- T/C [19]: 109 % of control
- T/C [16]: 116 % of control
